# Source: ChEMBL document CHEMBL4732126, “Design, synthesis, and biodistribution studies of new analogues of marine alkaloids: Potent in vitro and in vivo fungicidal agents against Candida spp” (Eur J Med Chem, 2021)
# Active and inactive are the calls of the source. The rule behind the calls is not given here.
# How the values were obtained:
# Candida albicans [1] = assay: Antifungal activity against Candida albicans ATCC 10231 assessed as reduction in fungal growth incubated for 48 hrs by broth microdilution method; type: functional
# Candida albicans [2] = assay: Antifungal activity against Candida albicans ATCC 18804 assessed as reduction in fungal growth incubated for 48 hrs by broth microdilution method; type: functional
# Nakaseomyces glabratus [3] = assay: Antifungal activity against Candida glabrata ATCC 2001 assessed as reduction in fungal growth incubated for 48 hrs by broth microdilution method; type: functional
# Pichia kudriavzevii [4] = assay: Antifungal activity against Candida krusei ATCC 34135 assessed as reduction in fungal growth incubated for 48 hrs by broth microdilution method; type: functional
# Candida tropicalis [5] = assay: Antifungal activity against Candida tropicalis ATCC 28707 assessed as reduction in fungal growth incubated for 48 hrs by broth microdilution method; type: functional
# Candida albicans [6] = assay: Antifungal activity against Candida albicans isolate 1 assessed as reduction in fungal growth incubated for 48 hrs by broth microdilution method; type: functional
# Candida albicans [7] = assay: Antifungal activity against Candida albicans isolate 2 assessed as reduction in fungal growth incubated for 48 hrs by broth microdilution method; type: functional
# Candida albicans [8] = assay: Antifungal activity against Candida albicans isolate 3 assessed as reduction in fungal growth incubated for 48 hrs by broth microdilution method; type: functional
# Candida albicans [9] = assay: Antifungal activity against Candida albicans isolate 4 assessed as reduction in fungal growth incubated for 48 hrs by broth microdilution method; type: functional
# Candida albicans [10] = assay: Antifungal activity against Candida albicans isolate 5 assessed as reduction in fungal growth incubated for 48 hrs by broth microdilution method; type: functional
# Candida albicans [11] = assay: Antifungal activity against Candida albicans isolate 6 assessed as reduction in fungal growth incubated for 48 hrs by broth microdilution method; type: functional
# Candida albicans [12] = assay: Antifungal activity against Candida albicans isolate 7 assessed as reduction in fungal growth incubated for 48 hrs by broth microdilution method; type: functional
# Candida albicans [13] = assay: Antifungal activity against Candida albicans isolate 8 assessed as reduction in fungal growth incubated for 48 hrs by broth microdilution method; type: functional
# Candida albicans [14] = assay: Antifungal activity against Candida albicans isolate 9 assessed as reduction in fungal growth incubated for 48 hrs by broth microdilution method; type: functional
# Candida albicans [15] = assay: Antifungal activity against Candida albicans isolate 10 assessed as reduction in fungal growth incubated for 48 hrs by broth microdilution method; type: functional
# Candida albicans [16] = assay: Antifungal activity against Candida albicans isolate 11 assessed as reduction in fungal growth incubated for 48 hrs by broth microdilution method; type: functional
# Candida albicans [17] = assay: Antifungal activity against Candida albicans isolate 12 assessed as reduction in fungal growth incubated for 48 hrs by broth microdilution method; type: functional
# Candida albicans [18] = assay: Antifungal activity against Candida albicans isolate 13 assessed as reduction in fungal growth incubated for 48 hrs by broth microdilution method; type: functional
# Candida albicans [19] = assay: Fungicidal activity against Candida albicans ATCC 18804 assessed as fungal killing incubated for 48 hrs followed by plating on SD agar plate; type: functional; conditions: read-out: MFC99.9
# Candida albicans [20] = assay: Fungicidal activity against Candida albicans ATCC 10231 assessed as fungal killing incubated for 48 hrs followed by plating on SD agar plate; type: functional; conditions: read-out: MFC99.9
# Nakaseomyces glabratus [21] = assay: Fungicidal activity against Candida glabrata ATCC 2001 assessed as fungal killing incubated for 48 hrs followed by plating on SD agar plate; type: functional; conditions: read-out: MFC99.9
# Pichia kudriavzevii [22] = assay: Fungicidal activity against Candida krusei ATCC 34135 assessed as fungal killing incubated for 48 hrs followed by plating on SD agar plate; type: functional; conditions: read-out: MFC99.9
# Candida tropicalis [23] = assay: Fungicidal activity against Candida tropicalis ATCC 28707 assessed as fungal killing incubated for 48 hrs followed by plating on SD agar plate; type: functional; conditions: read-out: MFC99.9
# Candida albicans [24] = assay: Fungicidal activity against Candida albicans isolate 1 assessed as fungal killing incubated for 48 hrs followed by plating on SD agar plate; type: functional; conditions: read-out: MFC99.9
# Candida albicans [25] = assay: Fungicidal activity against Candida albicans isolate 2 assessed as fungal killing incubated for 48 hrs followed by plating on SD agar plate; type: functional; conditions: read-out: MFC99.9
# Candida albicans [26] = assay: Fungicidal activity against Candida albicans isolate 3 assessed as fungal killing incubated for 48 hrs followed by plating on SD agar plate; type: functional; conditions: read-out: MFC99.9
# Candida albicans [27] = assay: Fungicidal activity against Candida albicans isolate 4 assessed as fungal killing incubated for 48 hrs followed by plating on SD agar plate; type: functional; conditions: read-out: MFC99.9
# Candida albicans [28] = assay: Fungicidal activity against Candida albicans isolate 5 assessed as fungal killing incubated for 48 hrs followed by plating on SD agar plate; type: functional; conditions: read-out: MFC99.9
# Candida albicans [29] = assay: Fungicidal activity against Candida albicans isolate 6 assessed as fungal killing incubated for 48 hrs followed by plating on SD agar plate; type: functional; conditions: read-out: MFC99.9
# Candida albicans [30] = assay: Fungicidal activity against Candida albicans isolate 7 assessed as fungal killing incubated for 48 hrs followed by plating on SD agar plate; type: functional; conditions: read-out: MFC99.9
# Candida albicans [31] = assay: Fungicidal activity against Candida albicans isolate 8 assessed as fungal killing incubated for 48 hrs followed by plating on SD agar plate; type: functional; conditions: read-out: MFC99.9
# Candida albicans [32] = assay: Fungicidal activity against Candida albicans isolate 9 assessed as fungal killing incubated for 48 hrs followed by plating on SD agar plate; type: functional; conditions: read-out: MFC99.9
# Candida albicans [33] = assay: Fungicidal activity against Candida albicans isolate 10 assessed as fungal killing incubated for 48 hrs followed by plating on SD agar plate; type: functional; conditions: read-out: MFC99.9
# Candida albicans [34] = assay: Fungicidal activity against Candida albicans isolate 11 assessed as fungal killing incubated for 48 hrs followed by plating on SD agar plate; type: functional; conditions: read-out: MFC99.9
# Candida albicans [35] = assay: Fungicidal activity against Candida albicans isolate 12 assessed as fungal killing incubated for 48 hrs followed by plating on SD agar plate; type: functional; conditions: read-out: MFC99.9
# Candida albicans [36] = assay: Fungicidal activity against Candida albicans isolate 13 assessed as fungal killing incubated for 48 hrs followed by plating on SD agar plate; type: functional; conditions: read-out: MFC99.9
# Candida albicans [37] = assay: Fungicidal activity against Candida albicans ATCC 10231 assessed as reduction in fungal load at 7.8 ug/ml incubated for 36 hrs followed by inoculation on SD agar plate for 48 hrs by time-kill assay; type: functional, organism-based; conditions: dose 7.8 µg/ml, time 84.0 hrs
# Candida albicans [38] = assay: Disruption of cell membrane in Candida albicans ATCC 10231 assessed as increase in intracellular leakage at MIC incubated for 24 hrs by UV spectrophotometric analysis; type: cell-based
# Nakaseomyces glabratus [39] = assay: Disruption of cell membrane in Candida glabrata ATCC 2001 assessed as increase in intracellular leakage at MIC incubated for 24 hrs by UV spectrophotometric analysis; type: cell-based
# Pichia kudriavzevii [40] = assay: Disruption of cell membrane in Candida krusei ATCC 34135 assessed as increase in intracellular leakage at MIC incubated for 24 hrs by UV spectrophotometric analysis; type: cell-based
# Candida tropicalis [41] = assay: Disruption of cell membrane in Candida tropicalis ATCC 28707 assessed as increase in intracellular leakage at MIC incubated for 24 hrs by UV spectrophotometric analysis; type: cell-based
# Candida albicans [42] = assay: Antifungal activity against Candida albicans ATCC 10231 assessed as reduction in fungal growth incubated for 48 hrs in presence of ergosterol by broth microdilution method; type: functional
# Candida albicans [43] = assay: Antifungal activity against Candida albicans ATCC 10231 assessed as reduction in fungal growth incubated for 48 hrs in presence of sorbitol by broth microdilution method; type: functional
# Nakaseomyces glabratus [44] = assay: Antifungal activity against Candida glabrata ATCC 2001 assessed as reduction in fungal growth incubated for 48 hrs in presence of ergosterol by broth microdilution method; type: functional
# Nakaseomyces glabratus [45] = assay: Antifungal activity against Candida glabrata ATCC 2001 assessed as reduction in fungal growth incubated for 48 hrs in presence of sorbitol by broth microdilution method; type: functional
# Pichia kudriavzevii [46] = assay: Antifungal activity against Candida krusei ATCC 34135 assessed as reduction in fungal growth incubated for 48 hrs in presence of ergosterol by broth microdilution method; type: functional
# Pichia kudriavzevii [47] = assay: Antifungal activity against Candida krusei ATCC 34135 assessed as reduction in fungal growth incubated for 48 hrs in presence of sorbitol by broth microdilution method; type: functional
# Candida tropicalis [48] = assay: Antifungal activity against Candida tropicalis ATCC 28707 assessed as reduction in fungal growth incubated for 48 hrs in presence of ergosterol by broth microdilution method; type: functional
# Candida tropicalis [49] = assay: Antifungal activity against Candida tropicalis ATCC 28707 assessed as reduction in fungal growth incubated for 48 hrs in presence of sorbitol by broth microdilution method; type: functional
# Candida albicans [50] = assay: Antifungal activity against Candida albicans ATCC 10231 assessed as inhibition of yeast to hypha morphological transition at 15.6 ug/ml measured upto 72 hrs by microscopic analysis; type: functional, organism-based; conditions: dose 15.6 µg/ml, time hrs <=72
# Candida albicans [51] = assay: Antibiofilm activity against Candida albicans ATCC 10231 assessed as reduction in mature biofilm at 125 ug/ml incubated for 48 hrs by crystal violet staining based spectrophotometric analysis relative to control; type: functional
# Candida albicans [52] = assay: Antibiofilm activity against Candida albicans ATCC 10231 assessed as reduction in biofilm formation at 0.24 to 7.81 ug/ml by crystal violet staining based spectrophotometric analysis; type: functional, organism-based; conditions: dose 0.24-7.81 µg/ml
# Candida albicans [53] = assay: Fungicidal activity against Candida albicans ATCC 10231 assessed as reduction in fungal load at 31.25 ug/ml incubated for 12 hrs followed by inoculation on SD agar plate for 48 hrs by time-kill assay; type: functional, organism-based; conditions: dose 31.25 µg/ml, time 60.0 hrs
compound,measurement,setting,value
CCCC[n+]1cccc(CCCOCCCCCCCCCCCCN=[N+]=[N-])c1.[I-],MIC,Candida albicans [1],7.8 µg/mL
same,MIC,Candida albicans [2],7.8 µg/mL
same,MIC,Nakaseomyces glabratus [3],7.8 µg/mL
same,MIC,Pichia kudriavzevii [4],3.9 µg/mL
same,MIC,Candida tropicalis [5],7.8 µg/mL
same,MIC,Candida albicans [6],7.8 µg/mL
same,MIC,Candida albicans [7],7.8 µg/mL
same,MIC,Candida albicans [8],3.9 µg/mL
same,MIC,Candida albicans [9],1.95 µg/mL
same,MIC,Candida albicans [10],3.9 µg/mL
same,MIC,Candida albicans [11],15.6 µg/mL
same,MIC,Candida albicans [12],7.8 µg/mL
same,MIC,Candida albicans [13],3.9 µg/mL
same,MIC,Candida albicans [14],15.6 µg/mL
same,MIC,Candida albicans [15],15.6 µg/mL
same,MIC,Candida albicans [16],7.8 µg/mL
same,MIC,Candida albicans [17],7.8 µg/mL
same,MIC,Candida albicans [18],7.8 µg/mL
same,MFC,Candida albicans [19],125 µg/mL
same,MFC,Candida albicans [20],31.2 µg/mL
same,MFC,Nakaseomyces glabratus [21],15.6 µg/mL
same,MFC,Pichia kudriavzevii [22],3.9 µg/mL
same,MFC,Candida tropicalis [23],15.6 µg/mL
same,MFC,Candida albicans [24],62.5 µg/mL
same,MFC,Candida albicans [25],7.8 µg/mL
same,MFC,Candida albicans [26],3.9 µg/mL
same,MFC,Candida albicans [27],3.9 µg/mL
same,MFC,Candida albicans [28],3.9 µg/mL
same,MFC,Candida albicans [29],31.2 µg/mL
same,MFC,Candida albicans [30],7.8 µg/mL
same,MFC,Candida albicans [31],7.8 µg/mL
same,MFC,Candida albicans [32],31.2 µg/mL
same,MFC,Candida albicans [33],31.2 µg/mL
same,MFC,Candida albicans [34],7.8 µg/mL
same,MFC,Candida albicans [35],7.8 µg/mL
same,MFC,Candida albicans [36],7.8 µg/mL
same,Activity,Candida albicans [37],Active
same,Activity,Candida albicans [38],Active
same,Activity,Nakaseomyces glabratus [39],Active
same,Activity,Pichia kudriavzevii [40],Active
same,Activity,Candida tropicalis [41],Active
same,MIC,Candida albicans [42],7.8 µg/mL
same,MIC,Candida albicans [43],7.8 µg/mL
same,MIC,Nakaseomyces glabratus [44],15.6 µg/mL
same,MIC,Nakaseomyces glabratus [45],7.8 µg/mL
same,MIC,Pichia kudriavzevii [46],3.9 µg/mL
same,MIC,Pichia kudriavzevii [47],3.9 µg/mL
same,MIC,Candida tropicalis [48],7.8 µg/mL
same,MIC,Candida tropicalis [49],7.8 µg/mL
same,Activity,Candida albicans [50],Active
same,inhibition at 125 µg/mL,Candida albicans [51],50%
same,Activity,Candida albicans [52],Active
same,Activity,Candida albicans [53],Active
